Consider 15 molecules from patent US9346815B2, “5-chloro-2-difluoromethoxyphenyl pyrazolopyrimidine compounds, compositions and methods of use thereof” (Genentech, Inc., priority 2014, dated 2016).

SMILES strings stand for the structures.

Usually Ki stands for the equilibrium dissociation constant of an inhibitor or competing ligand from its target.

Assay [1] deals with JAK1-dependent STAT6 phosphorylation downstream of IL-13 stimulation in TF-1 human erythroleukemia cells. The experiment in a line: JAK1 pathway assay in TF-1 cells (IL-13-pSTAT6, MSD). Format: cell-based. The conditions noted are these: Homo sapiens, TF-1, TF-1 cells, read-out: IL13-pSTAT6 EC50_TF-1. On the procedure:
JAK1 Pathway Assay in Cell Lines was Carried Out as Follows:
Inhibitor potency (EC50) was determined in cell-based assays designed to measure JAK1 dependent STAT phosphorylation.
In one assay approach, TF-1 human erythroleukemia cells obtained from the American Type Culture Collection (ATCC; Manassas, Va.) were used to measure JAK1-dependent STAT6 phosphorylation downstream of IL-13 stimulation. Prior to use in the assays, TF-1 cells were starved of GM-CSF overnight in OptiMEM medium (Life Technologies, Grand Island, N.Y.) supplemented with 0.5% charcoal/dextran stripped fetal bovine serum (FBS), 0.1 mM non-essential amino acids (NEAA), and 1 mM sodium pyruvate. The assays were run in 384-well plates in serum-free OptiMEM medium using 300,000 cells per well. In a second assay approach, BEAS-2B human bronchial epithelial cells obtained from ATCC were plated at 100,000 cells per well of a 96-well plate one day prior to the experiment. The BEAS-2B assay was run in complete growth medium (bronchial epithelial basal medium plus bulletkit; Lonza; Basel, Switzerland).
Test compounds were serially diluted 1:2 in DMSO and then diluted 1:50 in medium just before use. Diluted compounds were added to the cells, for a final DMSO concentration of 0.2%, and incubated for 30 min (for the TF-1 assay) or 1 hr (for the BEAS-2B assay) at 37° C. Then, cells were stimulated with human recombinant cytokine at their respective EC90 concentrations, as previously determined for each individual lot. Cells were stimulated with IL-13 (R&D Systems, Minneapolis, Minn.) for 15 min at 37° C. The TF-1 cell reactions were stopped by the direct addition of 10× lysis buffer (Cell Signaling Technologies, Danvers, Mass.), whereas the BEAS-2B cell incubations were halted by the removal of medium and addition of 1× lysis buffer. The resultant samples were frozen in the plates at −80° C. Compound mediated inhibition of STAT6 phosphorylation was measured in the cell lysates using MesoScale Discovery (MSD) technology (Gaithersburg, Md.).

The target in assay [2] is isolated recombinant JAK2 kinase domain (Homo sapiens (Human), UniProt O60674). Description: JAK2 enzyme assay (Caliper LabChip, peptide phosphorylation). Format: biochemical. The settings on record: 25 μM ATP.
For assay [3], the target named is isolated recombinant JAK1 kinase domain (Homo sapiens (Human), UniProt P23458). The experiment in a line: JAK1 enzyme assay (Caliper LabChip, peptide phosphorylation). Format: biochemical. The conditions noted are these: isolated recombinant JAK1 kinase domain, 25 μM ATP.
Sequence of isolated recombinant JAK1 kinase domain (P23458 875-1153): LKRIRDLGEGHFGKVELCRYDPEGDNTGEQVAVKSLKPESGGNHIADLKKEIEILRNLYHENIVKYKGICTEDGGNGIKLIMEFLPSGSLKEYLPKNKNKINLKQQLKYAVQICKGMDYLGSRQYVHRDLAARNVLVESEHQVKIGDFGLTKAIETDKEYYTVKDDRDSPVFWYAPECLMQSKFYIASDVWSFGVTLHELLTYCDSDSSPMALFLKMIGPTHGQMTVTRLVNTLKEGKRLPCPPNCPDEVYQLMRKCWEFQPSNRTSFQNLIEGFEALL

Sequence of isolated recombinant JAK2 kinase domain (O60674 849-1124): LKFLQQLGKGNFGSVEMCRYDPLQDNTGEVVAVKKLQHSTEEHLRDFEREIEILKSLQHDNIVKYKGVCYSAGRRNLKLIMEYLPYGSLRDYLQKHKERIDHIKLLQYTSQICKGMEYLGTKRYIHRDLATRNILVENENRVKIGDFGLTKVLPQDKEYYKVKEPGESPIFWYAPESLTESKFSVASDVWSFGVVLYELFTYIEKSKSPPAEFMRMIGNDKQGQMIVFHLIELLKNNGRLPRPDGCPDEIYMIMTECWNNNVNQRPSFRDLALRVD

As to `O=C(Nc1cn(CC(=O)N2C[C@@H]3CN(C(=O)OCCCO)C[C@@H]3C2)nc1-c1cc(Cl)ccc1OC(F)F)c1cnn2cccnc12` [Example 15, 3-hydroxypropyl (3aR,6aS)-2-[2-[3-[5-chloro-2-(difluoromethoxy)phenyl]-4-(pyrazolo[1,5-a]pyrimidine-3-carbonylamino)pyrazol-1-yl]acetyl]-1,3,3a,4,6,6a-hexahydropyrrolo[3,4-c]pyrrole-5-carboxylate], the EC50 in assay [1] was found to be 334 nM. For the same molecule, the Ki in assay [2] was determined as 0.93 nM; in assay [3] it was 0.53 nM.
As for `CN1C[C@@H]2CN(C(=O)Cn3cc(NC(=O)c4cnn5cccnc45)c(-c4cc(Cl)ccc4OC(F)F)n3)C[C@]2(c2ccccc2)C1` [Example 16, N-[1-[2-[(3aR,6aR)-2-methyl-3a-phenyl-3,4,6,6a-tetrahydro-1H-pyrrolo[3,4-c]pyrrol-5-yl]-2-oxo-ethyl]-3-[5-chloro-2-(difluoromethoxy)phenyl]pyrazol-4-yl]pyrazolo[1,5-a]pyrimidine-3-carboxamide], the EC50 in assay [1] came to 8.1 nM. For the same molecule, the Ki amounted to 0.56 nM in assay [2] and 0.62 nM in assay [3].
On to `O=C(Nc1cn(CC(=O)N2C[C@H]3CN(CC4CCN(C(=O)OCc5ccccc5)CC4)C[C@H]3C2)nc1-c1cc(Cl)ccc1OC(F)F)c1cnn2cccnc12` [Example 17, benzyl 4-[[(3aR,6aS)-5-[2-[3-[5-chloro-2-(difluoromethoxy)phenyl]-4-(pyrazolo[1,5-a]pyrimidine-3-carbonylamino)pyrazol-1-yl]acetyl]-1,3,3a,4,6,6a-hexahydropyrrolo[3,4-c]pyrrol-2-yl]methyl]piperidine-1-carboxylate], for which the EC50 in assay [1] is 80.9 nM. In addition, the Ki in assay [2] is 0.85 nM; in assay [3], 0.71 nM.
Taken in the same sequence, the figures for `O=C(Nc1cn(CC(=O)N2C[C@H]3CN(CCCN4CCCC4=O)C[C@H]3C2)nc1-c1cc(Cl)ccc1OC(F)F)c1cnn2cccnc12` [Example 18, N-[1-[2-[(3aR,6aS)-2-[3-(2-oxopyrrolidin-1-yl)propyl]-1,3,3a,4,6,6a-hexahydropyrrolo[3,4-c]pyrrol-5-yl]-2-oxo-ethyl]-3-[5-chloro-2-(difluoromethoxy)phenyl]pyrazol-4-yl]pyrazolo[1,5-a]pyrimidine-3-carboxamide] were 274 nM, 0.56 nM and 0.56 nM.
For `O=C(Nc1cn(CC(=O)N2C[C@H]3CN(CCCN4CCOCC4)C[C@H]3C2)nc1-c1cc(Cl)ccc1OC(F)F)c1cnn2cccnc12` [Example 19, N-[1-[2-[(3aR,6aS)-2-(3-morpholinopropyl)-1,3,3a,4,6,6a-hexahydropyrrolo[3,4-c]pyrrol-5-yl]-2-oxo-ethyl]-3-[5-chloro-2-(difluoromethoxy)phenyl]pyrazol-4-yl]pyrazolo[1,5-a]pyrimidine-3-carboxamide] the same measures were 379 nM, 0.71 nM and 0.72 nM.
For `O=C(Nc1cn(CC(=O)N2CC[C@@H]3CNCC[C@@H]32)nc1-c1cc(Cl)ccc1OC(F)F)c1cnn2cccnc12` [Example 20, N-[1-[2-[(3aR,7aS)-2,3,3a,4,5,6,7,7a-octahydropyrrolo[3,2-c]pyridin-1-yl]-2-oxo-ethyl]-3-[5-chloro-2-(difluoromethoxy)phenyl]pyrazol-4-yl]pyrazolo[1,5-a]pyrimidine-3-carboxamide] the same measures were 344 nM, 1.21 nM and 0.51 nM.
With `O=C(Nc1cn(CC(=O)N2CC[C@H]3CNC[C@H]3C2)nc1-c1cc(Cl)ccc1OC(F)F)c1cnn2cccnc12` [Example 21, N-[1-[2-[(3aS,7aR)-1,2,3,3a,4,6,7,7a-octahydropyrrolo[3,4-c]pyridin-5-yl]-2-oxo-ethyl]-3-[5-chloro-2-(difluoromethoxy)phenyl]pyrazol-4-yl]pyrazolo[1,5-a]pyrimidine-3-carboxamide], in assay [1], the EC50 was determined as 3040 nM. In addition, the Ki in assay [2] came out at 1.16 nM; in assay [3], 0.47 nM.
Taken in the same sequence, the figures for `CC(=O)N1CCC(CN2C[C@@H]3CN(C(=O)Cn4cc(NC(=O)c5cnn6cccnc56)c(-c5cc(Cl)ccc5OC(F)F)n4)C[C@@H]3C2)CC1` [Example 22, N-[1-[2-[(3aS,6aR)-2-[(1-acetyl-4-piperidyl)methyl]-1,3,3a,4,6,6a-hexahydropyrrolo[3,4-c]pyrrol-5-yl]-2-oxo-ethyl]-3-[5-chloro-2-(difluoromethoxy)phenyl]pyrazol-4-yl]pyrazolo[1,5-a]pyrimidine-3-carboxamide] were 158 nM, 0.95 nM and 0.94 nM.
For `CCOC(=O)N1CCC(CN2C[C@@H]3CN(C(=O)Cn4cc(NC(=O)c5cnn6cccnc56)c(-c5cc(Cl)ccc5OC(F)F)n4)C[C@@H]3C2)CC1` [Example 23, ethyl 4-[[(3aS,6aR)-5-[2-[3-[5-chloro-2-(difluoromethoxy)phenyl]-4-(pyrazolo[1,5-a]pyrimidine-3-carbonylamino)pyrazol-1-yl]acetyl]-1,3,3a,4,6,6a-hexahydropyrrolo[3,4-c]pyrrol-2-yl]methyl]piperidine-1-carboxylate] the same measures were 8.6 nM, 0.81 nM and 0.7 nM.
Taken in the same sequence, the figures for `CN1CC[C@@H]2[C@@H](CCN2C(=O)Cn2cc(NC(=O)c3cnn4cccnc34)c(-c3cc(Cl)ccc3OC(F)F)n2)C1` [Example 24, N-[1-[2-[(3aS,7aR)-5-methyl-3,3a,4,6,7,7a-hexahydro-2H-pyrrolo[3,2-c]pyridin-1-yl]-2-oxo-ethyl]-3-[5-chloro-2-(difluoromethoxy)phenyl]pyrazol-4-yl]pyrazolo[1,5-a]pyrimidine-3-carboxamide] were 4.9 nM, 2.02 nM and 0.78 nM.
Turning to `CN1C[C@H]2CCN(C(=O)Cn3cc(NC(=O)c4cnn5cccnc45)c(-c4cc(Cl)ccc4OC(F)F)n3)C[C@H]2C1` [Example 25, N-[1-[2-[(3aR,7aS)-2-methyl-3,3a,4,6,7,7a-hexahydro-1H-pyrrolo[3,4-c]pyridin-5-yl]-2-oxo-ethyl]-3-[5-chloro-2-(difluoromethoxy)phenyl]pyrazol-4-yl]pyrazolo[1,5-a]pyrimidine-3-carboxamide], the EC50 in assay [1] was 121 nM. The Ki in assay [2] was 1.61 nM; in assay [3], 0.66 nM.
In the case of `O=C(Nc1cn(CC(=O)N2C[C@H]3CN(CC4CCOCC4)C[C@H]3C2)nc1-c1cc(Cl)ccc1OC(F)F)c1cnn2cccnc12` [Example 26, N-[1-[2-[(3aR,6aS)-2-(tetrahydropyran-4-ylmethyl)-1,3,3a,4,6,6a-hexahydropyrrolo[3,4-c]pyrrol-5-yl]-2-oxo-ethyl]-3-[5-chloro-2-(difluoromethoxy)phenyl]pyrazol-4-yl]pyrazolo[1,5-a]pyrimidine-3-carboxamide], in assay [1], the EC50 was found to be 6.2 nM. The values for the Ki in assay [2] and in assay [3] were 0.94 nM and 0.77 nM, respectively.
On to `CS(=O)(=O)CCCN1C[C@@H]2CN(C(=O)Cn3cc(NC(=O)c4cnn5cccnc45)c(-c4cc(Cl)ccc4OC(F)F)n3)C[C@@H]2C1` [Example 27, N-[1-[2-[(3aS,6aR)-2-(3-methylsulfonylpropyl)-1,3,3a,4,6,6a-hexahydropyrrolo[3,4-c]pyrrol-5-yl]-2-oxo-ethyl]-3-[5-chloro-2-(difluoromethoxy)phenyl]pyrazol-4-yl]pyrazolo[1,5-a]pyrimidine-3-carboxamide], for which the EC50 in assay [1] is 144 nM. In addition, the Ki in assay [2] was 0.55 nM; in assay [3] it was 0.46 nM.
With `CN1CCC2CN(C(=O)Cn3cc(NC(=O)c4cnn5cccnc45)c(-c4cc(Cl)ccc4OC(F)F)n3)CCC21` (stereo not drawn) [Example 29, N-[3-[5-chloro-2-(difluoromethoxy)phenyl]-1-[2-(1-methyl-3,3a,4,6,7,7a-hexahydro-2H-pyrrolo[3,2-c]pyridin-5-yl)-2-oxo-ethyl]pyrazol-4-yl]pyrazolo[1,5-a]pyrimidine-3-carboxamide], the EC50 in assay [1] turned out to be 5.6 nM. Besides, the values for the Ki in assay [2] and in assay [3] were 1.76 nM and 1.01 nM, respectively.
For `CS(=O)(=O)CCN1C[C@@H]2CN(C(=O)Cn3cc(NC(=O)c4cnn5cccnc45)c(-c4cc(Cl)ccc4OC(F)F)n3)C[C@@H]2C1` [Example 31, N-[1-[2-[(3aS,6aR)-2-(2-methylsulfonylethyl)-1,3,3a,4,6,6a-hexahydropyrrolo[3,4-c]pyrrol-5-yl]-2-oxo-ethyl]-3-[5-chloro-2-(difluoromethoxy)phenyl]pyrazol-4-yl]pyrazolo[1,5-a]pyrimidine-3-carboxamide] the same measures were 102 nM, 0.53 nM and 0.37 nM.
